The text below walks through data of patent publication US9040525B2, “Cyclic amide derivative” (MOCHIDA PHARMACEUTICAL CO., LTD., priority 2010, dated 2015).

The assay deals with T1, GPR40 of human origin (Homo sapiens, UniProt O14842).
T1 construct: expressed in transfected cells
T1 sequence (O14842 whole entry): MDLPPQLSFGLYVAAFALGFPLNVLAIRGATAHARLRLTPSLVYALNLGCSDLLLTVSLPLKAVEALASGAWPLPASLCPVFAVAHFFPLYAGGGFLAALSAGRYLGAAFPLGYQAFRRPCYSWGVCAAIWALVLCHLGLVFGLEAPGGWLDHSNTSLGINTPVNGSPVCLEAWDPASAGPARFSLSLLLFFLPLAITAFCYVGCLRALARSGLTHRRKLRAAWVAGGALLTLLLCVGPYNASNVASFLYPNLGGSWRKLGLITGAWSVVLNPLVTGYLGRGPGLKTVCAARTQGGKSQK
The experiment in a line: Agonist action on GPR40 of human origin (Ca2+ fluorescence, CHO cell strain stably expressing GPR40). Type of assay: cell-based. The note with it: fluctuation of Ca2+ concentration. On the procedure:
A CHO cell strain stably expressing GPR40 of human origin was used to determine the agonist action of a title compound. This cell strain was seeded in a clear bottom 96 well plate at 2×10^4 cells/100 μL/well. The cell strain was cultured in a CO2 incubator overnight using a Ham's F-12 medium containing a 10% fetal bovine serum, 100 U/mL penicillin, 0.1 mg/mL streptomycin, and 400 μg/mL. Geneticin. Calcium 4 Assay Kit (Molecular Devices) was used as a fluorescent calcium indicator. One mL of 77 mg/mL probenecid (Invitrogen) was added to 100 mL of a calcium indicator solution to prepare a solution (loading solution) mixed with a 20 mM HEPES-containing Hanks' balanced salt solution (HBSS) in equal proportions. To the cells from which the culture solution was removed, 200 μL of the loading solution was added, and the cells were cultured in a CO2 incubator for 1 hour. The title compound was diluted with a 20 mM HEPES-containing HBSS and was added to the cells by 50 μL, and the fluctuation of the Ca^2+concentration was measured by an intracellular ion analyzer. The EC50 value of the title compound was calculated using the dose-response curve of fluorescence intensity variation.
Molecule `N#Cc1ccc(Oc2cccc3c2CC[C@H]3Oc2ccc(C3CC(=O)NS(=O)(=O)N3)cc2)cc1` (stereo partly drawn) [Example 26, 4-(((1R)-1-(4-(1,1-dioxo-1,2,6-thiadiazinan-3-on-5-yl)phenoxy)-2,3-dihydro-1H-inden-4-yl)oxy)benzonitrile] showed an EC50 of under 300 nM.
`O=C1CC(c2ccc(O[C@@H]3CCc4c(Oc5ccccc5)cccc43)cc2)[S+]([O-])N1` (stereo partly drawn) [Example 27, 5-(4-(((R)-4-phenoxy-2,3-dihydro-1H-inden-1-yl)oxy)phenyl)-1-oxo-1,2-thiazolidin-3-one] displayed an EC50 of under 300 nM.
`O=C1CC(c2ccc(OC3COc4c3cccc4C(F)(F)F)cc2)[S+]([O-])N1` (stereo not drawn) [Example 28] displayed an EC50 of 300 to 3000 nM.
Then `O=C1CC(c2ccc(O[C@@H]3CCc4c(Br)cccc43)cc2)[S+]([O-])N1` (stereo partly drawn) [Example 29, 5-(4-(((R)-4-bromo-2,3-dihydro-1H-inden-1-yl)oxy)phenyl)-1-oxo-1,2-thiazolidin-3-one], with under 300 nM; and `Cc1cc(OCCCS(C)(=O)=O)cc(C)c1-c1cccc(COc2ccc(C3CC(=O)NS(=O)(=O)C3)cc2)c1` (stereo not drawn) [Example 31, 5-[4-[[3-[2,6-dimethyl 4-(3-methylsulfonylpropoxy)phenyl]phenyl]methoxy]phenyl]-1,1-dioxo-1,2-thiazinan-3-one], with under 300 nM.
Turning to `N#Cc1ccc(Oc2cccc3c2CC[C@H]3Oc2ccc(C3CC(=O)NS(=O)(=O)C3)cc2)cc1` (stereo partly drawn) [Example 32, 4-(((1R)-1-(4-(1,1-dioxo-3-oxo-1,2-thiazinan-5-yl)phenoxy)-2,3-dihydro-1H-inden-4-yl)oxy)benzonitrile], the EC50 is under 300 nM.
Under `O=C1CC(c2ccc(O[C@@H]3CCc4c(Br)cccc43)cc2)CS(=O)(=O)N1` (stereo partly drawn) [Example 33, 5-(4-(((R)-4-bromo-2,3-dihydro-1H-inden-1-yl)oxy)phenyl)-1,1-dioxo-1,2-thiazinan-3-one] stands under 300 nM; under `Cc1cc(OCCC(C)(C)O)cc(C)c1-c1cccc2c1CC[C@H]2Oc1ccc(C2CC(=O)NS(=O)(=O)C2)cc1` (stereo partly drawn) [Example 34, 5-(4-(((R)-4-(4-(3-hydroxy-3-methylbutoxy)-2,6-dimethylphenyl)-2,3-dihydro-1H-inden-1-yl)oxy)phenyl)-1,1-dioxo-1,2-thiazinan-3-one], under 300 nM.
With `Cc1cc(OCCC(C)(C)O)nc(C)c1-c1cccc(COc2ccc(C3CC(=O)NS(=O)(=O)C3)cc2)c1` (stereo not drawn) [Example 35, 5-[4-[[3-[6-(3-hydroxy-3-methylbutoxy)-2,4-dimethylpyridin-3-yl]phenyl]methoxy]phenyl]-1,1-dioxo-1,2-thiazinan-3-one], the EC50 is under 300 nM.
